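Interpolation was linear, between the two tested concentrations surrounding the appropriate level; five concentrations were tested over 48 hours in 96-well plates. TGI is the concentration that stops growth completely.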

The values below come from PubChem BioAssay (NCI).

Experiment in all cases: growth of human tumour cells (NCI), 48 h
In assay [1] the test system is TK-10 renal.
Assay [2] deals with OVCAR-3 ovarian.
The test system of assay [3] is ACHN renal.
In assay [4] the test system is A498 renal.
The test system of assay [5] is NCI-H23 lung.
The subject of assay [6] is EKVX NSCLC.
Assay [7] relates to T-47D breast.
The subject of assay [8] is SK-MEL-28 melanoma.
Assay [9] deals with SN12C renal.
Assay [10] relates to LOX IMVI melanoma.
Assay [11] deals with HCT-15 colon.
The test system of assay [12] is U251 CNS.
Assay [13] deals with BT-549 breast.
Assay [14] deals with HL-60(TB) leukemia.
Assay [15] has as its system SNB-19 CNS.
Assay [16] relates to MCF7 breast.
Assay [17] has as its system HT29 colon.
Assay [18] concerns COLO 205 colon.
Assay [19] relates to NCI-H522 lung.
Assay [20] deals with A549 NSCLC.

For the compound `COc1ccc(/C=C2\CCC(CNc3ccc(OC)cc3)C2=O)cc1` (stereo not given), the TGI was 36 µM in assay [1]; 31.6 µM in assay [2]; 58.6 µM in assay [3]; > 66 µM in [4]; 19 µM in assay [5]; > 73.5 µM in [6]. Also, the TGI is 57.1 µM in [7]; 37.5 µM in [8]; 33.1 µM in [9]; 28 µM in assay [10]; 20.4 µM in assay [11]; 38.5 µM in [12]. The TGI is 26.8 µM in assay [13]; 17.5 µM in [14]; > 59.2 µM in assay [15]; 13.3 µM in assay [16]; 33.2 µM in assay [17]; 31.9 µM in assay [18]. For the same compound, the TGI in assay [19] is 11.6 µM; in [20] it was > 94.1 µM.

For `COc1ccc(C(SCCO)(c2ccccc2)c2ccccc2)cc1`, the TGI in assay [1] turned out to be 35 µM; in [2], 31.8 µM; in [3], 27.3 µM; in assay [4], 33.3 µM; in assay [5], 34 µM; in [6], 28.3 µM. The TGI came to 27 µM in assay [7]; 33.6 µM in assay [8]; 28.4 µM in [9]; 39.7 µM in assay [10]; 28.7 µM in assay [11]; 25.9 µM in [12]. In addition, the TGI in assay [13] amounted to 32.4 µM; in assay [14] it was 67 µM; in assay [15], 29.1 µM; in [16], 25 µM; in [17], 39.2 µM; in assay [18], 27.5 µM. The TGI is 34.4 µM in assay [19] and 24.6 µM in [20].

On to `CCSc1cc(=O)n(C)c(=O)n1C`, for which the TGI in [1], in [2], in assay [3], in [4], in assay [5] and in assay [6] was > 100 µM in each case. Moreover, the TGI in assay [7], in assay [8], in assay [9], in [10], in assay [11] and in assay [12] was > 100 µM in each case. For the same compound, the TGI in [13], in assay [14], in assay [15], in assay [16], in assay [17] and in [18] was > 100 µM throughout. Further, the TGI in assay [19] and in assay [20] was > 100 µM in each case.

Regarding `CCn1cc(C(=O)O)c(=O)c2cc3c(cc21)S(=O)(=O)CC3`, the TGI in assay [1], in assay [2], in [3], in [4], in assay [5] and in assay [6] was > 100 µM each time. Further, the TGI in [7], in [8], in assay [9], in assay [10], in assay [11] and in [12] was > 100 µM in each case. The TGI in assay [13], in assay [14], in assay [15], in assay [16], in [17] and in assay [18] was > 100 µM each time. Also, the TGI in assay [19] and in [20] was > 100 µM each time.

Turning to `CC(=C(C(N)=O)C(N)=O)C1C=C(c2cccs2)CC(c2ccc(Cl)cc2)=C1O` (stereo not given), the TGI in assay [1], in assay [2], in assay [3], in [4], in [5] and in assay [6] was > 100 µM throughout. The TGI in [7] was > 100 µM; in assay [8], > 100 µM; in assay [9] it was > 100 µM; in assay [10], 40.4 µM; in assay [11], > 100 µM; in assay [12], > 100 µM. In addition, the TGI in assay [13], in assay [14], in [15], in [16], in [17] and in assay [18] was > 100 µM each time. In addition, the TGI in assay [19] and in assay [20] was > 100 µM each time.

Turning to `NCCCNC1(c2cc3ccccc3s2)CCCCC1`, the TGI worked out at 12 µM in assay [1]; 22.6 µM in assay [2]; 24.4 µM in [3]; 9.03 µM in assay [4]; 31.3 µM in assay [5]; 22.5 µM in assay [6]. Besides, the TGI in assay [7] stood at 6.96 µM; in [8] it was 4.59 µM; in [9], 22.8 µM; in assay [10] it was 6.86 µM; in assay [11], 17.7 µM; in assay [12], 10 µM. The TGI in assay [13] came out at 27.8 µM; in [14], 14.8 µM; in assay [15], 22.5 µM; in assay [16] it was 12.2 µM; in assay [17], 10.9 µM; in assay [18], 3.45 µM. Besides, the TGI in assay [19] turned out to be 9.13 µM; in assay [20] it was 21.5 µM.

For `O=C1CCC(=O)N1n1c(Cc2ccc(Cl)cc2)n[nH]c1=O`, the TGI in assay [1], in [2], in assay [3], in assay [4], in assay [5] and in assay [6] was > 100 µM each time. Moreover, the TGI in assay [7], in assay [8], in assay [9], in assay [10], in assay [11] and in assay [12] was > 100 µM each time. For the same compound, the TGI in [13], in [14], in assay [15], in assay [16], in assay [17] and in assay [18] was > 100 µM in each case. Further, the TGI in assay [19] and in assay [20] was > 100 µM throughout.
